According to article PMC7756582, “Prodrugs of γ‐Alkyl‐Modified Nucleoside Triphosphates: Improved Inhibition of HIV Reverse Transcriptase” (Angewandte Chemie (International Ed. in English), 2020):

Biological target: T1, human DNA polymerase α (Homo sapiens, UniProt P09884)
T1 construct: purchased Chimerx
T1 sequence (P09884 1-1462): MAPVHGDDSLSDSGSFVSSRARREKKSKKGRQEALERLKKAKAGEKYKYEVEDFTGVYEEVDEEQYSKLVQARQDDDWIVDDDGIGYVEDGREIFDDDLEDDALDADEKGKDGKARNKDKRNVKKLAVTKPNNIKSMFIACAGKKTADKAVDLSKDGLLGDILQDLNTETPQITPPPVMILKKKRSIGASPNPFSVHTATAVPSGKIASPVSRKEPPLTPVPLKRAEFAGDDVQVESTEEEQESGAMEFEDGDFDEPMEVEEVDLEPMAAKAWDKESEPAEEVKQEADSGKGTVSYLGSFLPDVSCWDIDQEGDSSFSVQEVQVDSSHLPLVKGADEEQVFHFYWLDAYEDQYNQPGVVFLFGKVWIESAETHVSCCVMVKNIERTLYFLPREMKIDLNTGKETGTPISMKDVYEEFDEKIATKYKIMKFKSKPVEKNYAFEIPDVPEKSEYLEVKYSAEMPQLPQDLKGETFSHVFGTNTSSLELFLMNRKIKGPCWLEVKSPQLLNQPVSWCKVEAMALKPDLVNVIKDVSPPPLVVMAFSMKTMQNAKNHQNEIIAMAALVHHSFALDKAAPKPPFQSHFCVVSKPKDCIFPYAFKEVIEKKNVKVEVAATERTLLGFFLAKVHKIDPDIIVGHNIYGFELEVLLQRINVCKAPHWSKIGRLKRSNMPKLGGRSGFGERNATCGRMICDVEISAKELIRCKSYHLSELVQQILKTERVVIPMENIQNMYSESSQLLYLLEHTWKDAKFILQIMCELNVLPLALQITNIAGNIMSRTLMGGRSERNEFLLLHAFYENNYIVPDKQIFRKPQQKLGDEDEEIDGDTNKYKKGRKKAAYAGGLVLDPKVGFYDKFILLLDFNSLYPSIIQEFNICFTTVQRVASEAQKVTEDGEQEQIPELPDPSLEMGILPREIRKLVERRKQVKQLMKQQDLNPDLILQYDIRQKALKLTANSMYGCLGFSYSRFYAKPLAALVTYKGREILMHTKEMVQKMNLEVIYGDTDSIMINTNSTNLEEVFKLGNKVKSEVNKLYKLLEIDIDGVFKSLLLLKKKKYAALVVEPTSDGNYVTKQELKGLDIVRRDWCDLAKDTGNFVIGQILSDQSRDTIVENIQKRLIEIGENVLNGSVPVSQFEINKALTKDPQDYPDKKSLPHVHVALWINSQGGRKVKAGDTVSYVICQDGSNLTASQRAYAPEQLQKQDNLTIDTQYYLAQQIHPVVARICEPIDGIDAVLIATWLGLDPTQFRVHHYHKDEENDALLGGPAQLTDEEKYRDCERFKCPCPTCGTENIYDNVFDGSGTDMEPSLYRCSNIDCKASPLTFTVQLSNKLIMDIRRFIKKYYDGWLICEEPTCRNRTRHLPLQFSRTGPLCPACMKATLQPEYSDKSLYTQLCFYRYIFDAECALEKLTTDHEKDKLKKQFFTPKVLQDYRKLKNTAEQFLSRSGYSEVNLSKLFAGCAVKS
Experiment: Primer extension assay with human DNA polymerase α
Type: biochemical
Details: dNTPs 250 μM, Pol α 4 U, 60 min
Protocol: Two different set‐ups have been used. First, a mixture of dATP, dCTP, dGTP, and γ‐alkyl‐TTP (N*) or ‐d4TTP (T*) was used as a mixture. The results obtained from these experiments were compared to those in which just γ‐alkyl‐TTP (N) or d4TTP (T) was used. In each experiment a primer extension without added polymerase (negative control, ‐ lane) and an experiment in which all four canonical NTPs were added (positive control, +lane) were used as controls.
Anti-HIV activity assay: Inhibition of HIV-1(IIIB)- and HIV-2(ROD)-induced cytopathicity in wild-type CEM/0 and thymidine kinase-deficient CEM/TK- cell cultures was measured in microtiter 96-well plates containing ~3·105 CEM cells/mL infected with 100 CCID50 of HIV per milliliter and containing appropriate dilutions of the test compounds. After 4−5 days of incubation at 37 °C in a CO2-controlled humidified atmosphere, CEM giant (syncytium) cell formation was examined microscopically. The EC50 (50% effective concentration) was defined as the compound concentration required to inhibit HIV-induced giant cell formation by 50%. […]
2) For HIV- RT assay: The final assay solution (10 µL) consists of 50 mM Tris-HCl (pH 8.6 at 22 °C), 10 mM MgCl2, 40mM KCl, dNTPs 66 µM, HIV RT 6 U, Hybrid 0.32 µM in a reaction volume of 10 µL, incubated 37 °C for 15 min, 80 °C for 3 min; 50 mA, 45w for 4 h. […] The result was visualized by fluorescence imaging. […]

SMILES: Cc1cn(C2C=CC(COP(=O)(O)OP(=O)(O)OP(=O)(O)O)O2)c(=O)[nH]c1=O (stereo not shown) [2 t, d4TTP, reference compound]
- primer extension by DNA polymerase α (substrate properties): substrate
